Reference: patent US6849633B2, “Pyrazole derivative, production process thereof, and pest control agent containing the same as active ingredient” (Nihon Nohyaku Co., Ltd., priority 1999, dated 2005)

Experiments:
Type in all cases: in vivo
[1] = tested on: Oryzias latipes; test: Test on toxicity to fish using Oryzias latipes (Test Example 7); conditions: death rate, 0.5 ppm aqueous solution, adult Oryzias latipes, after 48 hours
Description: Test on Toxicity to Fish Using Oryzias latipes
This test example is one example for examining safety of agricultural and horticultural insecticides to the environment.
Ten mg of each compound was dissolved in 1 ml of dimethyl sulfoxide and a 0.05 ml portion thereof was added to a glass beaker containing 1 liter of distilled water to obtain a 0.5 ppm aqueous solution. Into the aqueous solution was put five fishes of Oryzias latipes (adult, average weight: about 360 mg) and the mortality was examined after 48 hours to calculate a death rate (%) (5 fishes per 1 lot/beaker, single run). The results are shown in Table 8 (the compound numbers in the table correspond to the numbers in Table 1).
Similar to Test Example 6, Compound I described in Japanese Patent Laid-Open No. 316771/1988, Compounds II and III described in Examples of WO9845274, and Compounds IV and V included in the claim of WO9845274 but not included in the claim of the present application were subjected to the test, as comparative compounds.

[2] = tested on: larvae of brown rice planthopper (Nilaparvata lugens); test: Insecticidal effect on larvae of brown rice planthopper, rice roots in agent solution (systemic, Test Example 6); conditions: for Death Rate (%) at Each Concentration of Active Ingrediet: 4th day; for insecticidal activity through systemic property (in words): summary of root-uptake test against brown rice planthopper
Description: (§1) Insecticidal Effect on Larvae of Brown Rice Planthopper (Nilaparvata lugens)
Roots of young rice seedlings (height: about 10 cm) planted in a plastic cup were washed with water and soil was washed away so as not to damage the fine roots. The stem was pinched by a urethane tip (diameter: 3 cm, height: 2 cm) having a cut line and the roots were inserted into an Erlenmeyer flask to which 50 ml of an agent solution (an aqueous diluted solution of agricultural and horticultural insecticide of the invention prepared in accordance with Formulation Example 1) was placed beforehand (2 to 3 young rice seedlings/flask). The urethane tip was wedged into the mouse of the flask to fix the rice seedlings. A glass tube (diameter: 3 cm, height: 5 cm) was placed thereon, wedged into the urethane tip, and fixed with a tape. The flask in such state was kept in a constant temperature room at 25° C. for 3 days. Five larvae of brown rice planthopper were placed in the glass tube and then the tube was capped with a urethane tip, followed by keeping in the constant temperature room at 25° C. (duplicates at a concentration). The mortality and agony of the larvae were examined on 4th day after the treatment to obtain a death rate (%) taking an agonizing insect as a ½ dead insect. This test was carried out on three agent solutions different in the concentration of the active ingredient. The results are shown in Table 7 (the compound numbers in the table correspond to the numbers in Table 1).
As comparative compounds I to V, each compound having a structure shown below (Compound I described in Japanese Patent Laid-Open No. 316771/1988, Compounds II and III described in Examples of WO9845274, and Compounds IV and V included in the claim of WO9845274 but not included in the claim of the present application) was similarly subjected to the test. [drawing 36]
Brown rice planthopper (Nilaparvata lugens) is a highly problematic pest insect species which is harmful as described in Test Example 1, but a sufficient effect can not be attained by the application method of spraying an agent to stems and leafs, provided that the detection is delayed or that an enough amount of the agent is not spread to the roots.
Since this insect species has a characteristic of making its habitat around the roots of rice plant or the like and harming the plant through sucking fluid, more efficient method of controlling the insect may be a method of treating the surface of soil with an agent (granule treatment) before the outbreak of the species occurs widely. However, in order to attain a high controlling effect, a systemic property (a penetrating and migrating property) into a plant body is required as the nature of the agent.

[3] = tested on: larvae of green peach aphid (Myzus persicae); test: Insecticidal effect on larvae of green peach aphid (leaf dip, Test Example 5); conditions: 500 ppm, leaves dipped about 5 seconds, 25° C., 4th day after treatment
Description: Insecticidal Effect on Larvae of Green Peach Aphid (Myzus persicae)
Water was put in a screw bottle (volume: 10 ml), and a leafstalk of Japanese radish was placed therein and inoculated with 5 to 6 imagoes of Myzus persicae per leave. After the inoculation, the bottle was put in a glass cylinder (diameter: […]; height: 15 cm) with a mesh cover, and the insects were let to proliferate in a constant temperature room kept at 25° C. for 3 days. The imagoes on the leaves were removed, and the leaves were dipped in an aqueous dilusion of an agricultural and horticultural insecticide prepared of the invention in accordance with Formulation Example 3 for about 5 seconds and then returned into the glass cylinder (duplicates at a concentration). The cylinder was kept in the constant temperature room at 25° C., and the number of the insects on the leaves was counted on the 4th day after the treatment to obtain a death rate (%). The results obtained are shown in Table 6 (the compound numbers in the Table correspond to the numbers in Table 1).

[4] = tested on: larvae of common cutworm (Spodoptera litura); test: Insecticidal effect on larvae of common cutworm (leaf disc, Test Example 3); conditions: 500 ppm, cabbage leaf disc soaked 1 minute, 3-instar larvae, 25° C., after 5 days
Description: Insecticidal Effect on Larvae of Common Cutworm (Spodoptera litura)
(§2) A disc (6 cm in diameter) cut out of a cabbage leaf was soaked for 1 minute in an aqueous suspension of an agricultural and horticultural insecticide of the invention prepared in accordance with Formulation Example 1, air-dried, and placed in a plastic cup (inner diameter: 7 cm). Five 3-instar larvae of Spodoptera litura were set free in the cup (duplicates at a concentration). The cup was kept in a constant temperature room at 25° C., and the death and agony of the larvae were examined after 5 days from the treatment to obtain a death rate (%) taking an agonizing insect as a ½ dead insect. The results obtained are shown in Table 4 (the compound numbers in the Table below correspond to the numbers in Table 1).

[5] = tested on: larvae of diamond back moth (Plutella xylostella); test: Insecticidal effect on larvae of diamond back moth (leaf disc, Test Example 2); conditions: 500 ppm, cabbage leaf disc soaked 1 minute, 3-instar larvae, 25° C., after 4 days
Description: Insecticidal Effect on Larvae of Diamond Back Moth (Plutella xylostella)
as §2, with “of the” for “of an”, “of Plutella xylostella” for “of Spodoptera litura”, “after 4” for “after 5”, “Table 3” for “Table 4”

[6] = tested on: cat flea; test: Insecticidal effect on cat flea (treated filter, Test Example 8); conditions: 0.7 mg/filter; mortality examined on 1st day and 2nd day after treatment
Description: Insecticidal Effect on Cat Flea
After drying, the filter was placed on the bottom of a cylinder (diameter: 10 cm×height: 30 cm). Ten fleas were set free therein and the mortality was examined on 1st day and 2nd day after the treatment to calculate a death rate (%) based on the results. The results are shown in Table 9 (the compound numbers in the table correspond to the numbers in Table 1).

[7] = tested on: imagoes of adzuki bean weevil (Callosobruchus chinensis); test: Insecticidal effect on imagoes of adzuki bean weevil (spray, Test Example 4); conditions: 500 ppm, emulsion sprayed, 25° C., after 4 days
Description: Insecticidal Effect on Imagoes of Adzuki Bean Weevil (Callosobruchus chinensis)
Two adzuki beans were put in a glass cylinder (inner diameter: 3 cm×length: 15 cm), and 10 imagoes of Callosobruchus chinensis were set free therein. An agricultural and horticultural insecticide of the invention was prepared in accordance with Formulation Example 3 and diluted with water, and 0.3 ml of the resulting emulsion was sprayed in the glass cylinder by means of a spray tower (manufactured by Mizuho Rika) (duplicates at a concentration). The cylinder was kept in a constant temperature room at 25° C., and the mortality and agony of the larvae were examined after 4 days from the treatment to obtain a death rate (%) taking an agonizing insect as a ½ dead insect. The results obtained are shown in Table 5 (the compound numbers in the Table correspond to the numbers in Table 1).

[8] = tested on: larvae of brown rice planthopper (Nilaparvata lugens); test: Insecticidal effect on larvae of brown rice planthopper (spray, Test Example 1); conditions: 500 ppm, emulsion sprayed, 4th instar larvae, 25° C., after 5 days; agonizing insect counted as 1/2 dead
Description: as §1
A rice seedling was planted in a glass cylinder (inner diameter: 3 cm×length: 17 cm), and five 4th instar larvae of brown rice planthopper were set free therein. An agricultural and horticultural insecticide of the invention was prepared in accordance with Formulation Example 3 and diluted with water, and 0.5 ml of the resulting emulsion was sprayed into the cylinder by means of a spraying tower (manufactured by Mizuho Rika) (duplicates at a concentration). The cylinder was kept in a constant temperature room at 25° C., and the mortality and agony of the larvae were examined after 5 days from the treatment to obtain a death rate (%) taking an agonizing insect as a ½ dead insect. The results obtained are shown in Table 2 (the compound numbers in Table 2 correspond to the numbers in Table 1).

[9] = 0.2 ppm agent solution at rice roots
[10] = 0.8 ppm agent solution at rice roots
[11] = 3.1 ppm agent solution at rice roots

Compound	Toxicity to fish (%) [1] [%]	Death Rate (%) at Each Concentration of Active Ingrediet [2, 9] [%]	Death Rate (%) at Each Concentration of Active Ingrediet [2, 10] [%]	Death Rate (%) at Each Concentration of Active Ingrediet [2, 11] [%]	insecticidal activity through systemic property (in words) [2]	Death Rate (%) [3] [%]	Death Rate (%) [4] [%]	Death Rate (%) [5] [%]	Death Rate (%) [6] [%]	Death Rate (%) [7] [%]	Death Rate (%) [8] [%]
N#Cc1nn(-c2c(Cl)cc(C(F)(F)F)cc2Cl)c(NCc2cc[n+]([O-])cc2)c1SC(F)(F)F [III]	60	92	100	100							
CSc1c(C#N)nn(-c2c(Cl)cc(C(F)(F)F)cc2Cl)c1NCc1cnccn1 [IV]	100	100	100	100	high systemic property						
N#Cc1nn(-c2c(Cl)cc(C(F)(F)F)cc2Cl)c(NCc2cnccn2)c1SC(F)(F)F [V]	100	55	80	95							
N#Cc1nn(-c2c(Cl)cc(C(F)(F)F)cc2Cl)c(NCc2cnccn2)c1[S+]([O-])C(F)(F)F (stereo not drawn) [Compound 5, 1-(2,6-dichloro-4-trifluoromethylphenyl)-4-trifluoromethylsulfinyl-5-(pyrazin-2-ylmethylamino)pyrazole-3-carbonitrile]		100	100	100		100	100	100	100	100	100
1-(2,6-dichloro-4-trifluoromethylphenyl)-4-trifluoromethylsulfinyl-5-(1-oxy-pyridin-3-ylmethylamino)pyrazole-3-carbonitrile [Compound 14]	0	100	100	100		100	100	100		100	100
N#Cc1nn(-c2c(Cl)cc(C(F)(F)F)cc2Cl)c(N)c1[S+]([O-])C(F)(F)F (stereo not drawn) [I]	100	33	67	92	obviously inferior effect						
C[S+]([O-])c1c(C#N)nn(-c2c(Cl)cc(C(F)(F)F)cc2Cl)c1NCc1cnccn1 (stereo not drawn) [Compound 1, 1-(2,6-dichloro-4-trifluoromethylphenyl)-4-methylsulfinyl-5-(pyrazin-2-ylmethylamino)pyrazole-3-carbonitrile]	0	100	100	100		100		100		100	100
N#Cc1nn(-c2c(Cl)cc(C(F)(F)F)cc2Cl)c(NCc2ccncc2)c1SC(F)(F)F [II]	80		20	50	obviously inferior effect						
